The target of the assay is T1, TbNMT (Trypanosoma brucei, UniProt Q388H8).
T1 construct: gene Tb10.61.2550; native full-length enzyme in intact bloodstream form parasites; not purified
T1 sequence (Q388H8 1-446): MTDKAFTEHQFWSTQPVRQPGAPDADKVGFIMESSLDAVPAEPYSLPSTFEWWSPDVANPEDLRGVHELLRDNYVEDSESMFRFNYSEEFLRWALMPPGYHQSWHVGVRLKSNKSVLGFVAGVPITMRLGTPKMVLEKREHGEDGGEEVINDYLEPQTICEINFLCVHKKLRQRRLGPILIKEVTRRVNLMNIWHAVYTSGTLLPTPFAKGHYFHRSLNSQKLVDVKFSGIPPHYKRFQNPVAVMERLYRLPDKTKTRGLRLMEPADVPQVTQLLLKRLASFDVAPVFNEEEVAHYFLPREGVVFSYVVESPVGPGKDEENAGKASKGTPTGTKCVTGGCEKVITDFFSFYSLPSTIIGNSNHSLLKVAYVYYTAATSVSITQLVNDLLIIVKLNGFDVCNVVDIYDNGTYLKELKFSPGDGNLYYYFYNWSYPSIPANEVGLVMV
The assay can be described thus: in-gel fluorescence of YnMyr tagging (CuAAC, NaOH-treated gels) in intact BSF parasites. The note with it: read-out: TC50 (tagging-IC50); 100 uM YnMyr, 1 h inhibitor pretreatment, 8 h labelling, 37 °C; whole-parasite value, not isolated enzyme. The class given is cell-based.

This is an account of results in paper PMC4906374, “Global Profiling and Inhibition of Protein Lipidation in Vector and Host Stages of the Sleeping Sickness Parasite Trypanosoma brucei” (ACS Infectious Diseases, 2016).

In the case of `Cc1noc(C)c1NS(=O)(=O)c1c(Cl)cc(-c2ccnc(N3CCNCC3)c2)cc1Cl` [compound 2, inhibitor 2], the IC50 came out at 2.57 ± 0.04 µM.
